In US20070191317A1, “VITAMIN D ANALOG - RAK, METHODS AND USES THEREOF” (WISCONSIN ALUMNI RESEARCH FOUNDATION, priority 2006, published 2007):
Entries after “also recorded” stand apart in the source; their conditions may differ.

Columns and labels:
[1] = cited from earlier work; for calcemic activity: as compared to 1α,25-dihydroxyvitamin D3
vitamin D receptors = biological target: T1, vitamin D receptors (Homo sapiens, UniProt P11473); conditions: cited from earlier work
T1 sequence (P11473 1-427): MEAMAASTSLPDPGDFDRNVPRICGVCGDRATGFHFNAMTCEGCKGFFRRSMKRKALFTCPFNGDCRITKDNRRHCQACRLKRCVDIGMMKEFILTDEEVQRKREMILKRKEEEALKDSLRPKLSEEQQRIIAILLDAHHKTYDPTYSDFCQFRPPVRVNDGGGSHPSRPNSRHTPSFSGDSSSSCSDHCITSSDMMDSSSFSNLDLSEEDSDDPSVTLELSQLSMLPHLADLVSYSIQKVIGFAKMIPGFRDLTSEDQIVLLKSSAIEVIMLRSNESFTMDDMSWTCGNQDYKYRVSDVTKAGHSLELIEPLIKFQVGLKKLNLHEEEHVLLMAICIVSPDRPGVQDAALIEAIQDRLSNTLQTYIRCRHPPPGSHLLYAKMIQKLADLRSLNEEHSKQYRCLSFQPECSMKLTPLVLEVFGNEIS

HL-60 cells = experiment: HL-60 differentiation (nitro blue tetrazolium reduction); type: cell-based, human; conditions: relative to 1α,25-dihydroxyvitamin D3; FIG. 4
Method: FIG. 4 is a graph comparing the percent HL-60 cell differentiation as a function of the concentration of RAK with that of 1,25(OH)2D3.
The study drugs were dissolved in ethanol and the concentrations determined using UV spectrophotometry. Serial dilutions were prepared so that a range of drug concentrations could be tested without changing the final concentration of ethanol (<0.2%) present in the cell cultures.
Human promyelocytic leukemia (HL60) cells were grown in RPMI-1640 medium containing 10% fetal bovine serum. The cells were incubated at 37° C. in the presence of 5% CO2.
HL60 cells were plated at 1.2×10^5 cells/ml. Eighteen hours after plating, cells in duplicate were treated with drug. Four days later, the cells were harvested and a nitro blue tetrazolium reduction assay was performed (Collins et al., 1979; J. Exp. Med. 149:969-974). The percentage of differentiated cells was determined by counting a total of 200 cells and recording the number that contained intracellular black-blue formazan deposits. Verification of differentiation to monocytic cells was determined by measuring phagocytic activity (data not shown).

[2] = tested on: 24-hdyroxylase (24Ohase) gene promoter; experiment: In vitro transcription assay (luciferase reporter) in ROS 17/2.8 (bone) cells; type: cell-based; conditions: Ros17/2.8 (bone) cells, relative to 1α,25-dihydroxyvitamin D3; FIG. 5
Method: FIG. 5 is a graph comparing the in vitro transcription activity of RAK with that of 1,25(OH)2D3.
Transcription activity was measured in ROS 17/2.8 (bone) cells that were stably transfected with a 24-hdyroxylase (24Ohase) gene promoter upstream of a luciferase reporter gene (Arbour et al., 1998). Cells were given a range of doses. Sixteen hours after dosing the cells were harvested and luciferase activities were measured using a luminometer. (RLU=relative luciferase units)

[3] = biological target: T2, full-length recombinant rat vitamin D receptor (Rattus norvegicus, UniProt P13053); experiment: Vitamin D receptor competitive binding with [3H]-1,25-(OH)2-D3; conditions: relative to 1α,25-dihydroxyvitamin D3; FIG. 1
T2 construct: Full-length recombinant rat receptor was expressed in E. coli; histidine tag (C); made in house; host or cells: E. coli BL21(DE3) Codon Plus RIL
T2 sequence (P13053 1-423): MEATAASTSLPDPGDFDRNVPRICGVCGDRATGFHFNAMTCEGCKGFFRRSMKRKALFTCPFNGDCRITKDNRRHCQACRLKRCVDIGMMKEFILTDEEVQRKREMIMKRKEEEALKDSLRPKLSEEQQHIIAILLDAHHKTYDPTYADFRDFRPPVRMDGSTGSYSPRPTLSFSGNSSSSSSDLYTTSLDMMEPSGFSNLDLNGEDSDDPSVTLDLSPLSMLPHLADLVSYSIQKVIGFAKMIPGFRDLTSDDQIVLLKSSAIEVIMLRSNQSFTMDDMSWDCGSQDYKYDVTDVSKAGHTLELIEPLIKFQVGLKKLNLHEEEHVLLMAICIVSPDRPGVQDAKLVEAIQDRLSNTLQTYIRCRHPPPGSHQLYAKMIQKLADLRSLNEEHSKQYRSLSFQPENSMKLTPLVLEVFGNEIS
Method: The first system was a nickel affinity resin that utilizes the C-terminal histidine tag on this protein. The protein that was eluted from this resin was further purified using ion exchange chromatography (S-Sepharose Fast Flow). Aliquots of the purified protein were quick frozen in liquid nitrogen and stored at −80° C. until use. For use in binding assays, the protein was diluted in TEDK50 (50 mM Tris, 1.5 mM EDTA, pH7.4, 5 mM DTT, 150 mM KCl) with 0.1% Chaps detergent. The receptor protein and ligand concentration was optimized such that no more than 20% of the added radiolabeled ligand was bound to the receptor.
The following day, 100 mcl of hydroxylapatite slurry (50%) was added to each tube and mixed at 10-minute intervals for 30 minutes. The hydroxylapaptite was collected by centrifugation and then washed three times with Tris-EDTA buffer (50 mM Tris, 1.5 mM EDTA, pH 7.4) containing 0.5% Titron X-100. After the final wash, the pellets were transferred to scintillation vials containing 4 ml of Biosafe II scintillation cocktail, mixed and placed in a scintillation counter. Total binding was determined from the tubes containing only radiolabeled ligand.

[4] = Intestinal calcium transport (everted gut sac method); type: in vivo, Sprague-Dawley rats; conditions: rats, ip; at equimolar quantities of the dose of 1α,25-dihydroxyvitamin D3; FIG. 3
Method: FIG. 3 is a bar graph comparing the intestinal calcium transport activity of RAK with that of 1,25(OH)2D3.
(§1) Male, weanling Sprague-Dawley rats were placed on Diet 11 (0.47% Ca) diet+AEK for one week followed by Diet 11 (0.02% Ca)+AEK for 3 weeks. The rats were then switched to a diet containing 0.47% Ca for one week followed by two weeks on a diet containing 0.02% Ca. Dose administration began during the last week on 0.02% calcium diet. Four consecutive ip doses were given approximately 24 hours apart. Twenty-four hours after the last dose, blood was collected from the severed neck and the concentration of serum calcium determined as a measure of bone calcium mobilization. The first 10 cm of the intestine was also collected for intestinal calcium transport analysis using the everted gut sac method.

[5] = Bone calcium mobilization (serum calcium); type: in vivo, Sprague-Dawley rats; conditions: rats, ip, FIG. 2
Method: FIG. 2 is a bar graph comparing the bone calcium mobilization activity of RAK with that of 1,25(OH)2D3.
as §1

1α-hydroxy-2-methylene-19-nor-(20S)-homopregnacalciferol
calcemic activity [1]: little if any calcemic activity | binding activity to vitamin D receptors (vitamin D receptors): relatively high binding activity

1α-hydroxy-2-methylene-19-nor-bishomopregnacalciferol
calcemic activity [1]: little if any calcemic activity | binding activity to vitamin D receptors (vitamin D receptors): relatively high binding activity

C[C@H](CCCC(C)(C)O)[C@H]1CC[C@H]2/C(=C/C=C3C[C@@H](O)C[C@H](O)C3)CCC[C@]12C [1α,25-dihydroxy-19-nor-vitamin D3]
calcium mobilizing activity ([1]; in vivo): very low

C=C1[C@H](O)CC(=C/C=C2\CCC[C@]3(C)[C@@H](CC)CC[C@@H]23)C[C@H]1O [1α-hydroxy-2-methylene-19-nor-pregnacalciferol]
calcemic activity [1]: little if any calcemic activity | binding activity to vitamin D receptors (vitamin D receptors): relatively high binding activity

C=C1[C@H](O)CC(=C/C=C2\CCC[C@]3(C)[C@@H]([C@H](C)CCCC(C)O)CC[C@@H]23)C[C@H]1O (stereo partly drawn) [RAK, (20R,25R)-2-Methylene-19,26-dinor-1α,25-dihydroxyvitamin D3]
inducing differentiation of HL-60 cells (HL-60 cells): equally active as 1α,25-dihydroxyvitamin D3 | stimulating transcription of a reporter gene [2]: equally active | binding to the recombinant vitamin D receptor [3]: comparable to 1α,25-dihydroxyvitamin D3; also recorded: relatively high binding | calcemic activity measured by intestinal calcium transport [4]: limited calcemic activity; also recorded: very low intestinal calcium transport activity | calcemic activity measured by bone calcium mobilization ([5]; at 27 time molar quantity of the dose of 1α,25-dihydroxyvitamin D3): limited calcemic activity | calcemic activity measured by bone calcium mobilization ([5]; at equimolar quantities of the dose of 1α,25-dihydroxyvitamin D3): limited calcemic activity; also recorded: very low ability to mobilize calcium from bone
